Measured values reported in patent US6410585B1, “Inhibitors of protein tyrosine phosphatase” (priority 1997, dated 2002).

Molecular target: T1, human PTP1B (Homo sapiens, UniProt P18031)
T1 construct: human PTP1B (amino acid residues 1-321); made in house; host or cells: E. coli BL21(DE3)
T1 sequence (P18031 1-321): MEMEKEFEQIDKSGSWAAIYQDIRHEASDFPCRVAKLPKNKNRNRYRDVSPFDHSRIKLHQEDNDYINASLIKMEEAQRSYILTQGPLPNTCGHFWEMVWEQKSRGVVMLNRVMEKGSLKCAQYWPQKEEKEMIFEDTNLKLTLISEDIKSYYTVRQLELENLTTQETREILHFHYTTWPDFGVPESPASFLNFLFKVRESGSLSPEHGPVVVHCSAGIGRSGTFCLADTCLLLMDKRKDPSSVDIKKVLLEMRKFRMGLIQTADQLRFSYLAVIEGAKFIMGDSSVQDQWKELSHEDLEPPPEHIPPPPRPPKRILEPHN
Experiment: PTP1B assay, pNPP hydrolysis, assayed exactly as for PTP1
Type: biochemical
Conditions: for inhibition at 1 µM / inhibition at 10 µM / inhibition at 100 µM: Table 2, read-out: PTP1B Inhib PTP1B. % Inhib; for PTP1B Inhib PTP1B. % Inhib: Table 2
Text: The equivalent construct of human PTP1B (amino acid residues 1-321) (cloned from a human placental library), without the GST tag and thrombin cleavage site, was inserted into a pMB replicon and transformed into E. coli BL21(DE3), a strain containing a chromosomal copy of the gene for T7 RNA polymerase under control of a lacUV5 promoter. Expression of PTP1B was induced with isopropyl thiogalactose and the soluble protein was purified by ion exchange, hydrophobic interaction and gel exclusion chromatography for use in the assay to identify PTP inhibitors.
PTP1 activity is measured using either p-nitrophenol phosphate (pNPP) or a triphosphopeptide (that matches residues 1142 through 1153 of the β-subunit and the insulin receptor) as substrate in a 96-well microtiter plate format. An assay pH of 7.2 is used for standard assays (measured 405=9800 at pH 7.2).
Human PTP1B, which is highly homologous to rat PTP1, was assayed exactly as described above for PTP1.
Standard assays are conducted at room temperature in a total volume of 0.2 ml that contains Hepes buffer (50 mM, pH 7.2), NaCl (50 mM), EDTA (1 mM), DTT (1 mM), bovine serum albumin (1 mg/ml), pNPP (1 mM) and PTP1 (35 ng/ml). Compounds (2 μl of 10 mM solutions) are pipetted into wells of microtiter plates followed by 198 μl of premixed reaction mix (with PTP1 and pNPP added immediately before use). The rate of change in A405 is recorded for 60 min. Two wells on each plate contain DMSO controls and two wells contain sodium orthovanadate (1 mM) which inhibits PTP1-catalyzed hydrolysis of pNPP completely. Data are expressed as percent inhibition relative to the average of the DMSO controls measured on the same microtiter plate.

Structure (SMILES) | inhibition at 1 µM (Conc 1 uM) [%] | inhibition at 10 µM (Conc 10 uM) [%] | inhibition at 100 µM (Conc 100 uM) [%] | PTP1B Inhib PTP1B. % Inhib (Conc 1 uM) [%] | PTP1B Inhib PTP1B. % Inhib (Conc 10 uM) [%] | PTP1B Inhib PTP1B. % Inhib (Conc 100 uM) [%]
CCCCCNC(=O)[C@H](Cc1ccc(OCC(=O)O)c(C(=O)NO)c1)NC(=O)[C@H](Cc1ccccc1)NC(=O)OC(C)(C)C | 5 | 13 | 54 | – | – | –
CCCCCNC(=O)[C@H](Cc1ccc(OCC(=O)NO)c(C(=O)O)c1)NC(=O)[C@H](Cc1ccccc1)NC(=O)OC(C)(C)C | 6 | 8 | 30 | – | – | –
CCCCCNC(=O)C(Cc1ccc(OCCOO)c(COO)c1)NC(=O)C(Cc1ccccc1)NC(=O)CCNS(C)(=O)=O (stereo not shown) | 15 | 73 | 95 | – | – | –
CCCCCNC(=O)[C@H](Cc1ccc(OCC(=O)OC)c(C(=O)O)c1)NC(=O)[C@H](Cc1ccccc1)NC(=O)OC(C)(C)C | 3 | 5 | 25 | – | – | –
CCCCCNC(=O)[C@H](Cc1ccc(OCC(=O)O)c(C(=O)O)c1)NC(=O)C(Cc1ccccc1)NC(=O)Cn1nnnc1S (stereo partly shown) | 57 | 91 | 98 | – | – | –
CCCCCNC(=O)C(Cc1ccc(OC(COO)C(=O)O)cc1)C(=O)NCCC(=O)O (stereo not shown) | 9 | 15 | 48 | – | – | –
CCCCCNC(=O)C(Cc1ccc(OCCOO)c(COO)c1)NC(=O)C(Cc1ccccc1)NC(=O)CCNC(=O)OC(C)(C)C (stereo not shown) | 19 | 75 | 96 | – | – | –
CCCCCNC(=O)C(Cc1ccc(OCCOO)c(COO)c1)NC(=O)CCc1ccccc1 (stereo not shown) | 4 | 15 | 60 | – | – | –
CCCCCNC(=O)C(Cc1ccc(OC(COO)COO)cc1)NC(=O)C(Cc1c(F)c(F)c(F)c(F)c1F)NC(=O)OC(C)(C)C (stereo not shown) | 5 | 25 | 80 | – | – | –
CCCCCNC(=O)[C@H](Cc1ccc(N(CC(=O)O)CC(=O)O)cc1)NC(=O)[C@H](Cc1ccccc1)NC(=O)OC(C)(C)C | 3 | 6 | 29 | – | – | –
CC(C)(C)OC(=O)N[C@@H](Cc1ccccc1)C(=O)N[C@@H](Cc1ccc(OCC(=O)O)c(C(=O)O)c1)C(=O)NCCCCc1ccccc1 [drawing 221] | 64 | 93 | 98 | – | – | –
CCCCCNC(=O)C(Cc1ccc(OCCOO)c(COO)c1)NC(=O)C(C)NC(=O)OC(C)(C)C (stereo not shown) | 8 | 43 | 86 | – | – | –
CCCCCNC(=O)[C@H](Cc1ccc(OC(F)C(=O)O)c(C(=O)O)c1)NC(=O)[C@H](Cc1ccccc1)NC(=O)OC(C)(C)C (stereo partly shown) | 34 | 76 | 95 | – | – | –
CCCCCNC(=O)[C@H](Cc1ccc(OCC(=O)O)c(-c2nn[nH]n2)c1)NC(=O)[C@H](Cc1ccccc1)NC(=O)OC(C)(C)C | – | – | 87 | – | – | 97
CCCCCNC(=O)C(Cc1ccc(OCCOO)c(COO)c1)NC(=O)C(Cc1ccccc1)NC(=O)CCOC (stereo not shown) | 37 | 83 | 97 | – | – | –
CCCCCNC(=O)C(Cc1ccc(OC(C(=O)O)C(=O)O)cc1)NC(=O)[C@H](Cc1c[nH]c2ccccc12)NC(=O)OC(C)(C)C (stereo partly shown) | 10 | 44 | 89 | – | – | –
CCCCCNC(=O)C(Cc1ccc(OC(COO)COO)cc1)NC(=O)C(CC(N)=O)NC(=O)OC(C)(C)C (stereo not shown) | 9 | 40 | 85 | – | – | –
CCCCCNC(=O)C(Cc1ccc(OCCOO)c(COO)c1)NC(=O)C(Cc1ccccc1)NC(=O)CCCO (stereo not shown) | 23 | 78 | 96 | – | – | –
CCCCCNC(=O)C(Cc1ccc(OC(COO)COO)cc1)NC(=O)C(CC[S+](C)[O-])NC(=O)OC(C)(C)C (stereo not shown) | 7 | 21 | 67 | – | – | –

Now from value to compound:

inhibition at 1 µM (Conc 1 uM) [%] | inhibition at 10 µM (Conc 10 uM) [%] | inhibition at 100 µM (Conc 100 uM) [%] | PTP1B Inhib PTP1B. % Inhib (Conc 1 uM) [%] | PTP1B Inhib PTP1B. % Inhib (Conc 10 uM) [%] | PTP1B Inhib PTP1B. % Inhib (Conc 100 uM) [%] | Structure (SMILES)
12 | 54 | 92 | – | – | – | CCCCCNC(=O)C(Cc1ccc(OC(COO)COO)cc1)NC(=O)C(Cc1ccccc1)NC(=O)CCN(CC)CC (stereo not shown)
39 | 85 | 98 | – | – | – | CCCCCNC(=O)C(Cc1ccc(OCCOO)c(COO)c1)NC(=O)C(Cc1ccccc1)NC(=O)Cc1ccc(C(F)(F)F)cc1 (stereo not shown)
19 | 70 | 96 | – | – | – | CCCCCNC(=O)C(Cc1ccc(OCCOO)c(COO)c1)NC(=O)C(Cc1ccccc1)NC(=O)CCCc1ccccc1 (stereo not shown)
4 | 16 | 62 | – | – | – | CCCCCNC(=O)C(Cc1ccc(OC(COO)COO)cc1)NC(=O)C(Cc1ccccc1)NS(=O)OCc1ccccc1 (stereo not shown)
5 | 8 | 42 | – | – | – | CCCCCNC(=O)C(Cc1ccc(OC(COO)COO)cc1)NC(=O)N(Cc1ccccc1)C(CCc1ccccc1)CC(=O)O (stereo not shown)
64 | 93 | 98 | 66 | 92 | – | CCCCCNC(=O)C(Cc1ccc(OCCOO)c(COO)c1)NC(=O)C(Cc1ccccc1)NC(=O)CCC(=O)O (stereo not shown)
19 | 65 | 94 | – | – | – | CCCCCNC(=O)C(Cc1ccc(OC(COO)COO)cc1)NC(=O)C(Cc1ccccc1)NC(=O)CCOC (stereo not shown)
46 | 87 | 97 | – | – | – | CCCCCNC(=O)C(Cc1ccc(OCCOO)c(COO)c1)NC(=O)C(Cc1ccccc1)NC(=O)Cc1ccc(OC)cc1 (stereo not shown)
9 | 40 | 86 | – | – | – | CCCCCNC(=O)C(Cc1ccc(OC(COO)COO)cc1)NC(=O)C(Cc1ccccc1)NS(=O)OC (stereo not shown)
22 | 74 | 95 | – | – | – | CCCCCNC(=O)C(Cc1ccc(OCCOO)c(COO)c1)NC(=O)C(Cc1ccccc1)NC(=O)CCc1ccccc1 (stereo not shown)
17 | 63 | 94 | – | – | – | CCCCCNC(=O)C(Cc1ccc(OC(COO)COO)cc1)NC(=O)Nc1cccc(C(=O)O)c1 (stereo not shown)
2 | 14 | 75 | 3 | 16 | 83 | CCCCCNC(=O)C(Cc1ccc(OC(COO)COO)cc1)NC(=O)C(CSCc1ccccc1)NC(=O)OC(C)(C)C (stereo not shown)
10 | 50 | 90 | – | – | – | CCCCCNC(=O)C(Cc1ccc(OC(COO)COO)cc1)NC(=O)C(Cc1ccc(O)cc1)NC(=O)OC(C)(C)C (stereo not shown)
45 | 87 | 98 | – | – | – | CCCCCNC(=O)C(Cc1ccc(OCCOO)c(COO)c1)NC(=O)C(Cc1ccccc1)NC(=O)Cc1ccccc1 (stereo not shown)
3 | 33 | 86 | – | – | – | CCCCCNC(=O)C(Cc1ccc(OC(COO)COO)cc1)NC(=O)C(Cc1cccc2ccccc12)NC(=O)OC(C)(C)C (stereo not shown)
6 | 28 | 79 | – | – | – | CCCCCNC(=O)C(Cc1ccc(OC(COO)COO)cc1)NC(=O)C(CCCCNC(=O)OCc1ccccc1)NC(=O)OC(C)(C)C (stereo not shown)
3 | 9 | 58 | – | – | – | CCCCCNC(=O)C(Cc1ccc(OC(COO)COO)cc1)NC(=O)N(Cc1cccc(C(=O)O)c1)Cc1cccc(C(F)(F)F)c1 (stereo not shown)
